From patent US9921212B2, “Preventive and therapeutic drug for cartilaginous hyperplasia and method of screening for the same” (KYOTO UNIVERSITY, priority 2014, dated 2018)

Tests used:
[1] = system: human SOX9 promoter; assay: human SOX9 promoter luciferase reporter activity in chondroprogenitor cells; type: cell-based; settings: mutant-type chondroprogenitor cells, 10 μM, 24 hours
From the text: In order to examine SOX9 regulation, human SOX9 promoter activity in chondroprogenitor cells was confirmed. A reporter construct prepared by inserting a −927- to +84-bp human SOX9 promoter region (transcription start site: 0) into a pGL3-luciferase reporter plasmid (Promega) in accordance with Ushita M et al., Osteoarthritis and cartilage/OARS, Osteoarthritis Research Society. 2009; 17(8): 1065-75 was used for confirmation (FIG. 7A and Table 2). Chondroprogenitor cells obtained by the above method were seeded on a 6-well plate (50000 cells/well). A FuGENE 6 transfection reagent was used for transfection (2 μg DNA/well). Twenty four hours later, luciferase activity was determined using a Dual-Luciferase Reporter Assay Kit (Promega) and a Centro XS^3 LB 960 Microplate Luminometer (BERTHOLD) for calculation of promoter activity. […] Next, in order to identify mutation of a site responsible for NLRP3-dependent responsiveness, reporter constructs each having a mutation in an NFAT-binding sequence, an AP-1-binding sequence, an NF-κB-binding sequence, an Sp1-binding sequence, or an CREB/ATF-binding sequence were prepared as listed in Table 3. These mutated reporter constructs were transfected into chondroprogenitor cells in the above manner to confirm promoter activity. […]

[2] = system: mutant-type chondroprogenitor cells; assay: 3D pellet culture, size of cartilaginous pellets (Alcian Blue stained area), mutant-type; type: cell-based, human; settings: added during 3D pellet culture
Method: Chondroprogenitor cells obtained by the above method were cultured in a cartilage induction medium containing 5 ng/mL FGF2 and 10 ng/ml TGFβ3 for 3 days. Then, 2.5×10^5 cells were centrifuged to form a pellet, followed by culture in a cartilage induction medium containing 0.5 ml of 40 ng/ml PDGF-BB and 1% FCS, as in the case of 2D micromass culture. Six days later, 10 ng/ml TGFβ3 was further added for culture. Ten days later, PDGF-BB was substituted with 50 ng/ml BMP4 (WAKO). 3D pellet culture was mained at 37° C. in 5% CO2 for 28 days.
In order to examine the chondrocytes induced via 2D micromass culture and those induced via 3D pellet culture, the cells obtained by 2D micromass culture were fixed with 4% paraformaldehyde (PFA) for 1 hour and stained with 1% Alcian Blue (pH 1.0) (Sigma-Aldrich), and the cells obtained by 3D pellet culture were fixed with 4% paraformaldehyde (PFA) for 1 hour and stained with 0.1% Alcian Blue (pH 1.0) (Sigma-Aldrich). Further, immunostaining was carried out using an anti-COL2 antibody (Thermo Scientific). Alcian blue is a reagent for detecting an extracellular matrix secreted by chondrocytes, and COL2 is a gene that is expressed in a chondrocyte-specific manner.
Further, the influence of adenylate cyclase was examined with the addition of forskolin and SQ22536 during 3D pellet culture. […]

[3] = system: SOX9; assay: 2D micromass culture with inhibitor added, SOX9 expression; type: cell-based, human; settings: 10 μM or 1 μg/mL
Method: (§1) Chondroprogenitor cells (1.5×10^5 cells) obtained via the above method were suspended in a cartilage induction medium containing 40 ng/ml PDGF-BB and 1% FCS and the suspension was spotted in the form of […] drops on a fibronectin-coated 24-well plate (BD), followed by culture. In this case, the medium was replaced every three days. Six days later, 10 ng/ml TGFβ3 was further added for culture. Ten days after the start of 2D micromass culture, PDGF-BB was substituted with 50 ng/ml BMP4 (WAKO). 2D micromass culture was performed at 37° C. in 5% CO2 for 14 days.
(§2) mRNA was isolated from each cell using an RNeasy Mini Kit (Qiagen). cDNA was synthesized via reverse transcription using 1 μg of the obtained total RNA as a template and a Superscript III reverse transcriptase (Invitrogen). A standard curve for quantitative real-time PCR was created to conduct analysis. Real-time PCR analysis was conducted using a Power SYBR Green qPCR mastermix (Invitrogen) and a StepOne real-time PCR system (ABI) for quantitative determination.
Further, 2D micromass culture was performed with the addition of 10 μM or 1 μg/mL Ac-YVAD-CHO. As a result, there was no influence in cartilaginous hyperplasia (FIGS. 6A, 6B, 6D, 6E, 6F, and 6H) or SOX9 expression (FIGS. 6C and 6G).

[4] = system: mutant-type iPSC-derived chondrocytes; assay: 2D micromass culture with inhibitor added, cartilaginous hyperplasia (pellet size, GAG); type: cell-based, human; settings: 10 μM or 1 μg/mL
Method: as §1
Subsequently, quantitative analysis of the amount of DNA and the glycosaminoglycan production amount after chondrocyte differentiation was conducted. The amount of DNA was determined using a Pico Green dsDNA Quantitation kit (Invitrogen) in the manner described in Nasu A, et al., PloS one. 8(1): e53771 (2013). The extracellular matrix production amount was determined using Blyscan glycosaminoglycan Assay (Biocolor) in accordance with the manufacturer's protocol. As a result, no difference in the amount of DNA in chondrocytes was found between wild-type iPSC-derived cartilage tissue and mutant-type iPSC-derived cartilage tissue in both cases of 2D micromass culture and 3D pellet culture (FIGS. 3B and 3C). […]

[5] = system: SOX9; assay: mRNA expression of SOX9 in chondroprogenitor cells with forskolin and SQ22536 added; type: cell-based, human; settings: wild-type and mutant-type chondroprogenitor cells
Method: as §2
In order to examine whether or not the […] signal transduction pathway is involved in cartilaginous hyperplasia, analysis was conducted using forskolin, which is an adenylate cyclase activator, and SQ22536, which is an adenylate cyclase inhibitor. This test was conducted by introducing a human SOX9 promoter into chondroprogenitor cells, immediately treating the cells with 10 μM forskolin (CALBIOCHEM) or 10 μM SQ22536 (Sigma-Aldrich), and incubating cells for 24 hours so as to determine luciferase activity. As a result, the SOX9 promoter activity in mutant-type chondroprogenitor cells treated with forskolin increased to a level 2.3 times that of mutant-type chondroprogenitor cells (control) treated with a base (DMSO) (FIG. 7D). Meanwhile, the SOX9 promoter activity in mutant-type chondroprogenitor cells treated with SQ22536 decreased to a level half that in the control (FIG. 7D).

With `C=C[C@@]1(C)CC(=O)[C@]2(O)[C@@]3(C)[C@@H](O)CCC(C)(C)[C@@H]3[C@H](O)[C@H](OC(C)=O)[C@@]2(C)O1` [forskolin] the “SOX9 promoter activity, increase relative to control treated with a base (DMSO)” value [1] was 2.3 times and the “size, increase relative to control treated with a base (DMSO)” value [2] was 2.0 times.
In the case of Ac-YVAD-CHO, the “influence in SOX9 expression” value [3] was “no influence” and the “influence in cartilaginous hyperplasia” value [4] was “no influence”.
In the case of `Nc1ncnc2c1ncn2C1CCCO1` (stereo not shown) [SQ22536, 9-(tetrahydro-2-furanyl)-adenine], the “SOX9 promoter activity, decrease relative to control treated with a base (DMSO)” value [1] was “half”, the “effect on mRNA expression of SOX9, relation to SOX9 promoter activity data” value [5] was “correlated” and the “size, decrease relative to control treated with a base (DMSO)” value [2] was 2.1 times less.
